“And” between values parts separate entries of the source, which are not always exact repeats. Equal values may be shown once.
Target: Human His6-CBX7 (Homo sapiens (Human), UniProt O95931)
Assay: CBX7 AlphaScreen assay (binding of CBX7 chromodomain to H3K27me3 peptide)
Settings: for IC50: average, His6-CBX7 / biotinylated-H3K27me3, read-out: AVG CBX7 Alpha IC50
Excerpt: A biochemical assay was developed based on nanoparticle AlphaScreen assay to monitor the binding of recombinant CBX chromodomain (CBX7) to a methylated peptide (H3K27me3).
The primary assay uses recombinant CBX chromodomain and synthetic, trimethylated H3 histone tail peptide. When CBX/histone tail-binding occurs, AlphaScreen beads are brought in close proximity, resulting in singlet molecular oxygen transfer and production of a luminescent signal. Assay positives inhibiting the binding interaction are therefore expected to prevent complex formation, diminishing signal intensity. The AlphaScreen technology features an anti-Stokes shift in detection: due to energy transfer between beads by singlet oxygen and internal chemical reactions within the acceptor bead, the emission wavelength is blue-shifted relative to the excitation wavelength, which is impossible in traditional fluorescent assays. The relatively long path length of 200 nm that singlet molecular oxygen can travel enables reporting on full protein complexes and not just single target binding. […] Neither the small molecules being tested nor the target protein, CBX7, need to be chemically, conformationally, or behaviorally altered by tethering them to a surface or reporter that may decrease physiological relevance and beget screening artifacts. The primary assay monitors binding of the chromodomain of CBX7 to a histone tail containing a trimethylated lysine at K27, the biologically relevant interaction through which PRC binds to chromatin to repress transcription. This is a robust proximity-based assay that utilizes AlphaScreen technology (PerkinElmer). The assay consists of His6-CBX7 bound to a Ni^++ acceptor bead and the biotinylated histone tail bound to a streptavadin donor bead. Upon CBX7/H3K27me3 binding, the steptavidin bead comes into proximity with the Ni^++ bead to luminesce upon light excitation ([…]; see below).
The protocol for the CBX7 AlphaScreen was as follows: a standard alpha buffer (50 mM HEPES, 150 mM NaCl, 0.1% w/v BSA, 0.01% w/v Tween20) at pH 8.0 and make up two stock solutions at 2× final concentration in the alpha buffer. Solution A contains Human His6-CBX7 is used with biotinylated-H3K27me3 (residues 20-34), at 100 nM and 50 nM respectively. Solution B contains 20 nM streptavidin donor beads and 20 nM nickel acceptor beads. For 384 well assay formats, 10 uL of solution A is added to each well of the assay plate and the plate is spun at 1000 rpm for 30 seconds. 100 nL of experimental compounds from stock plates are delivered by robotic pin transfer using a Janus Workstation (PerkinElmer), allowing the compounds to interact with CBX7 binding prior to assay measurement, followed by another spin and an incubation room temperature. Finally, 10 uL of solution B is added to each well, the plate is spun again and then incubated at room temperature. AlphaScreen measurements are performed on an Envision 2104 (PerkinElmer) utilizing the manufacturer's protocol that has the correct excitation and emission wavelengths, cutoff filters, delay time, etc. A crosstalk calculation is also done through the Envision software to correct for luminescence for adjacent wells while reading the plate. The signal is then normalized to DMSO control wells on the compound plate prior to creation of the IC50 curves.

Chain of Human His6-CBX7 (O95931 11-69): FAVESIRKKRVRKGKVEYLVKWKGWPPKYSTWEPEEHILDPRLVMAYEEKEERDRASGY

Structure (SMILES)	IC50	also measured
Oc1ccc(/C=N/Nc2nc(-c3ccc(N4CCCC4)cc3)cs2)c(O)c1O [ACV-62]	0.861 µM	
O=C(CC1S/C(=N/N=C/c2cccc(-c3ccc(C(=O)O)cc3)c2)NC1=O)Nc1ccc(N2CCCC2)cc1 (stereo not drawn) [ACV-32]	23.5 µM	
O=C(CC1S/C(=N/Cc2cccnc2)NC1=O)Nc1ccc(N2CCCC2)cc1 (stereo not drawn) [ACV-31]	404 µM	
CN(C)CCCOc1ccc(/C=N/NC(=O)c2cc(-c3ccco3)nc3ccccc23)cc1 [ACV-06]	13.6 µM	
O=C(Cc1cnc(NC(=O)Cc2cccnc2)s1)Nc1ccc(N2CCCC2)cc1 [ACV-48 (1)]	403 µM	
O=C(COCc1ccc(CN2CCCC2)cc1)N1CCN(C(=O)c2cccnc2)CC1 [ACV-57]	336 µM	
O=C(CC1S/C(=N/N=C/c2cncnc2)NC1=O)Nc1ccc(N2CCCC2)cc1 (stereo not drawn) [ACV-28]	44.6 µM	
O=C(COCc1ccc(CN2CCCC2)cc1)N[C@H]1CCCN(Cc2cccnc2)C1=O [ACV-80]	2.86e-05 µM	
O=C(N/N=C/c1ccc(N2CCCC2)cc1)c1ccc(-c2csc(NCCc3cccnc3)n2)cc1 [ACV-92]	170 µM	
COc1ccc(CC(=O)Nc2nc(CC(=O)Nc3ccc(N4CCCC4)cc3)cs2)c(OC)c1OC [ACV-83]	23.9 µM	
O=C(Cc1cccnc1)/N=C1\NC(=O)C(CC(=O)Nc2ccc(N3CCCC3)cc2)S1 (stereo not drawn) [ACV-33]	56.2 µM	
O=C(CC1SCC(C(=O)N/N=C/c2ccc(O)c(O)c2O)NC1=O)Nc1ccc(N2CCCC2)cc1 (stereo not drawn) [ACV-34]	7.9 µM	
COc1ccc(CC(=O)Nc2ncc(CC(=O)NCCN3CCN(C)CC3)s2)c(OC)c1OC [ACV-82]	50.8 µM	
C(=N\Nc1nc(-c2ccc(OCc3ccccc3)cc2)cs1)/c1cccnc1 [ACV-59]	759 µM	
O=C(CC1S/C(=N\N=C\c2cccnc2)NC1=O)Nc1cccc(Cl)c1Cl (stereo not drawn) [JQI-III-263-A]		activity in CBX AlphaScreen assay (cap scan of Scaffold 3, in words (FIG. 8)): improved activity
COc1cccc(C(=O)N2CCN(C(=O)COc3cccc(C)c3)CC2)c1OC [ACV-72]	124 µM	
O=C(CC1S/C(=N/N=C/c2ccc(O)c(O)c2)NC1=O)Nc1ccc(N2CCCC2)cc1 (stereo not drawn) [ACV-36 (2)]	24.5 µM	

Structure (SMILES)	IC50	also measured
O=C(Cc1cnc(NC(=O)Nc2cccc(Cc3ccccc3)c2)s1)Nc1ccc(N2CCCC2)cc1 [ACV-54]	9.31 µM	
O=C(Nc1ccc(CCN2CCCC2)cc1)c1cc(-c2ccco2)nc2ccccc12 [ACV-13]	69.5 µM	
CN1CCN(CCNC(=O)Cc2cnc(NC(=O)Nc3cccnc3)s2)CC1 [ACV-81]	104 µM	
O=C(COCc1cccnc1)N1CCN(C(=O)c2ccc(CCN3CCCC3)cc2)CC1 [ACV-56]	64.1 µM	
CN(C)c1ccc(CCNC(=O)CC2SC(N/N=C/c3ccc(N4CCCC4)cc3)=NC2=O)cc1 (stereo not drawn) [ACV-76]	3.76 µM	
COc1ccc(NC(=O)CC2S/C(=N/N=C/c3cccnc3)NC2=O)cc1OC (stereo not drawn) [ACV-38]	165 µM	
CN(C)c1ccc(/C=N/N=C2\NC(=O)C(CC(=O)Nc3ccc(N4CCCC4)cc3)S2)cc1 (stereo not drawn) [ACV-21]	3.69 µM	
O=C(CCC(=O)c1ccc(CN2CCCC2)cc1)NC1CCCN(C(=O)c2cccnc2)C1 (stereo not drawn) [ACV-70]	46.7 µM	
O=C(O)c1cc(-c2ccco2)nc2ccc(Br)cc12 [ACV-11]	8.51 µM	
O=C(Nc1ccc(N2CCCC2)cc1)c1ccc(-c2csc(NCCc3cccnc3)n2)cc1 [ACV-99]	16.4 µM	
COC(=O)c1ccc(-c2ccc(/C=N/N=C3\NC(=O)C(CC(=O)Nc4ccc(N5CCCC5)cc4)S3)cc2)cc1 (stereo not drawn) [ACV-20]	28.6 µM	
CN1CCN(CCNC(=O)CC2S/C(=N/N=C/c3ccc(O)c(O)c3O)NC2=O)CC1 (stereo not drawn) [ACV-63 (2)]	22.5 µM	
O=C(Nc1ccc(N2CCCC2)cc1)c1ccc2nc(-c3ccc(O)c(O)c3O)c(NCc3ccccc3)n2c1 [ACV-3-142, 3-(benzylamino)-N-(4-(pyrrolidin-1-yl)phenyl)-2-(2,3,4-trihydroxyphenyl)imidazo[1,2-a]pyridine-6-carboxamide]	0.66 µM	
COc1ccc(NC(=O)Nc2ncc(CC(=O)Nc3ccc(N4CCCC4)cc3)s2)cc1OC [ACV-53]	12.5 µM	
CN1CCN(c2ccc(NC(=O)c3cc(-c4ccco4)nc4ccccc34)cc2)CC1 [ACV-10]	20.2 µM	
O=C(CC1S/C(=N/N=C/c2ccc(O)c(O)c2O)NC1=O)Nc1ccc(N2CCCC2)cc1 (stereo not drawn) [ACV-17(4)]	1.56 µM	

More lines, main results first:

IC50	Structure (SMILES)	also measured
39 µM	O=C(CC1S/C(=N/C(=O)c2ccccc2)NC1=O)Nc1ccc(N2CCCC2)cc1 (stereo not drawn) [ACV-30]	
5.22 µM	O=C(O)c1ccc(-c2csc(N/N=C/c3ccc(O)c(O)c3O)n2)cc1 [ACV-64]	
0.364 µM	NC(=S)N/N=C/c1ccc(O)c(O)c1O [ACV-60]	
81.7 µM	O=C(c1ccc(-c2csc(NCCc3cccnc3)n2)cc1)N1CCC(N2CCCC2)CC1 [ACV-97]	
1.88 µM	O=C(N/N=C/c1ccc(N2CCCC2)cc1)c1cc(-c2ccco2)nc2ccccc12 [ACV-05]	improvement in binding affinity compared to the original scaffold (versus Scaffold 2 (FIG. 7)): more than 5 fold
1450 µM	O=C(Cc1cnc(NC(=O)Cc2cccnc2)s1)Nc1ccc(Br)cc1 [ACV-41]	
440 µM	COC(=O)Cc1cnc(NC(=O)c2ccc(CCN3CCCC3)cc2)s1 [ACV-93]	
121 µM	CN1CCN(CCNC(=O)c2ccc(-c3csc(NCCc4cccnc4)n3)cc2)CC1 [ACV-98]	
10 µM	O=C(CC1S/C(=N/N=C/c2ccc(O)c(O)c2)NC1=O)Nc1ccc(N2CCCC2)cc1 (stereo not drawn) [ACV-36 (1)]	
6.1 µM	CN(C)c1ccc(CC(CO)NC(=O)c2cc(-c3ccco3)nc3ccccc23)cc1 (stereo not drawn) [ACV-12, N-(1-(4-(dimethylamino)phenyl)-3-hydroxypropan-2-yl)-2-(furan-2-yl)quinoline-4-carboxamide]	
17.2 µM	O=C(Cc1cnc(NC(=O)Nc2ccc(F)cc2)s1)Nc1ccc(N2CCCC2)cc1 [ACV-49]	
16.6 µM	O=C(CC1S/C(=N/N=C/c2ccc3cccnc3n2)NC1=O)Nc1ccc(N2CCCC2)cc1 (stereo not drawn) [ACV-26]	
7.39 µM	O=C(NCc1cccc(N2CCCC2)n1)c1cc(-c2ccco2)nc2ccccc12 [ACV-09]	
1.01 µM	O=C(CC1S/C(=N/N=C/c2ccc(O)c(O)c2O)NC1=O)Nc1ccc(N2CCCC2)cc1 (stereo not drawn) [ACV-17(3)]	
88.4 µM	CN1CCN(c2ccc(NC(=O)Cc3cnc(NC(=O)Cc4cccnc4)s3)cc2)CC1 [ACV-46]	
0.0686 µM	CN1CCN(CCNC(=O)c2ccc(-c3csc(N/N=C/c4ccc(O)c(O)c4O)n3)cc2)CC1 [ACV-75]	
123 µM	c1cn2c(NC3CCCCC3)c(-c3ccc4[nH]ncc4c3)nc2cn1 [ACV-94]	
7.26 µM	O=C(CC12SC(CCN3CCOCC3)(NC1=O)C1C(=O)N(c3ccc(N4CCCC4)cc3)C(=O)C12)Nc1ccc(N2CCCC2)cc1 (stereo not drawn) [ACV-84]	
607 µM	O=C(Cc1cnc(NC(=O)Cc2cccnc2)s1)Nc1ccc(N2CCCC2)cc1 [ACV-48 (2)]	
0.835 µM	O=C(CC1SC(N2CCC(c3ccc(O)c(O)c3O)=N2)=NC1=O)Nc1ccc(N2CCCC2)cc1 (stereo not drawn) [CBX-08, 2-(4-oxo-2-(3-(2,3,4-trihydroxyphenyl)-4,5-dihydro-1H-pyrazol-1-yl)-4,5-dihydrothiazol-5-yl)-N-(4-(pyrrolidin-1-yl)phenyl)acetamide]	
11.9 µM	CN(C)c1ccc(CCNC(=O)CC2SC(N/N=C/c3ccc(O)c(O)c3O)=NC2=O)cc1 (stereo not drawn) [ACV-66]	
3.01 µM	O=C(NCCN1CCCC1)c1ccc(-c2csc(N/N=C/c3cccnc3)n2)cc1 [ACV-79]	
37.3 µM	O=C(CC1S/C(=N/N=C/c2ccccn2)NC1=O)Nc1ccc(N2CCCC2)cc1 (stereo not drawn) [ACV-15]	
39 µM and 15.5 µM	CC(C)(C)c1ccc(/C=N/N=C2\NC(=O)C(CC(=O)Nc3ccc(N4CCCC4)cc3)S2)cc1 (stereo not drawn) [ACV-29]	
60.9 µM	COc1cc(/C=N/NC(=O)C2CSC(CC(=O)Nc3ccc(N4CCCC4)cc3)C(=O)N2)ccc1O (stereo not drawn) [ACV-25]	
2.36 µM	O=C(CC1S/C(=N/N=C/c2ccc(O)c(O)c2O)NC1=O)Nc1ccc(N2CCCC2)cc1 (stereo not drawn) [ACV-17* (P1)]	
54.8 µM	CN1CCN(CCNc2nc(CC(=O)Nc3ccc(N4CCCC4)cc3)cs2)CC1 [ACV-85]	
4.41 µM	O=C(CC1S/C(=N/N=C/c2cccnc2)NC1=O)Nc1ccc(N2CCCC2)cc1 (stereo not drawn) [ACV-14 (1)]	
53.4 µM	CN1CCN(CCNC(=O)CC2SC(N3CCC(c4ccc(O)c(O)c4O)=N3)=NC2=O)CC1 (stereo not drawn) [CBX-09, N-(2-(4-methylpiperazin-1-yl)ethyl)-2-(4-oxo-2-(3-(2,3,4-trihydroxyphenyl)-4,5-dihydro-1H-pyrazol-1-yl)-4,5-dihydrothiazol-5-yl)acetamide]	
